Results: PMC5972026 (Journal of medicinal chemistry, 2017)
“Also recorded” adds a separate entry of the source. Where a name gives a salt, the structure may show the parent alone.

Legend:
[1] = tested on: A/HK/7/87 virus (H3N2 subtype), wt M2; assay type: cell-based, influenza A virus
[2] = molecular target: A/M2 wt channel (A/Udorn/72) (Influenza A virus, UniProt P0DOF5); test: cell-based; assay type: cell-based
[3] = tested on: A/HK/7/87 virus (H3N2 subtype), wt M2; assay type: cell-based, influenza A virus; remark: listed apart in the source
[4] = tested on: MDCK cells; settings: 100 μM

Sequence of A/M2 wt channel (A/Udorn/72) (P0DOF5 whole entry, looked up): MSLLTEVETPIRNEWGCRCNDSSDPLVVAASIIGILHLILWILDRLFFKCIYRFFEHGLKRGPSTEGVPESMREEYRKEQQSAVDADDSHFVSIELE

Cl.OC1(CC2CCNCC2)C2CC3CC(C2)CC1C3 (stereo not drawn) [Compound 15, 2-(piperidin-4-ylmethyl)adamantan-2-ol hydrochloride]
Antiviral activity in the PRA [1]: active

C1CC(C23CC4CC(CC(C4)C2)C3)CCN1 [Compound 2, 4-(1-adamantyl)piperidine hydrochloride]
Binding behaviour [2]: strong binder
Reversibility of inhibition [2]: essentially irreversible
Antiviral activity confirmed in virus yield assay [3]: confirmed
Antiviral activity in the PRA [1]: active

N=C(N)N1CCC(C=C2C3CC4CC(C3)CC2C4)CC1 [Compound 19, 4-[(adamantan-2-ylidene)methyl]piperidine-1-carboximidamide hydrochloride]
Binding behaviour [2]: weak binding affinity
Antiviral activity in the PRA [1]: did not display antiviral activity

C1CCC(C23CC4CC(CC(C4)C2)C3)NC1 (stereo not drawn) [Compound 8, 2-(1-adamantyl)piperidine hydrochloride]
Binding behaviour [2]: strong binders; also recorded: very slow but strong binding
Reversibility of inhibition [2]: essentially irreversible
inhibition at 100 µM ([2]; read-out: Inhibition after 6 min of treatment, 100 μM, 6 min): > 90%
Antiviral activity confirmed in virus yield assay [3]: confirmed
Cytotoxicity at highest concentration tested [4]: devoid of cytotoxicity
Antiviral activity in the PRA [1]: active

N=C(N)N1CCC(CC2C3CC4CC(C3)CC2C4)CC1 (stereo not drawn) [Compound 20, 4-[(adamantan-2-yl)methyl]piperidine-1-carboximidamide hydrochloride]
Binding behaviour [2]: weak binding affinity
Antiviral activity in the PRA [1]: did not display antiviral activity

N=C(N)N1CCC(C23CC4CC(CC(C4)C2)C3)CC1 [Compound 7, N-amidyl-4-(1-adamantyl)piperidine hydrochloride]
Binding behaviour [2]: weak binding affinity; also recorded: fast and weak binder
Time after which compound dissociated from the channel [2]: 5 min
Antiviral activity in the PRA [1]: did not display antiviral activity
